Measured values: BindingDB's records for doi:10.3109/14756366.2010.518965 (Guangzhou Institutes of Biomedicine and Health, Chinese …, 2011)
Structures can show the parent of a compound that is named as a salt.

Columns and labels:
Experiment in all cases: UDP-glucuronosyltransferase Activity Assay
[1] = target: T1, UDP-glucuronosyltransferase 2B10 (Homo sapiens, UniProt P36537)
T1 sequence (P36537 whole entry): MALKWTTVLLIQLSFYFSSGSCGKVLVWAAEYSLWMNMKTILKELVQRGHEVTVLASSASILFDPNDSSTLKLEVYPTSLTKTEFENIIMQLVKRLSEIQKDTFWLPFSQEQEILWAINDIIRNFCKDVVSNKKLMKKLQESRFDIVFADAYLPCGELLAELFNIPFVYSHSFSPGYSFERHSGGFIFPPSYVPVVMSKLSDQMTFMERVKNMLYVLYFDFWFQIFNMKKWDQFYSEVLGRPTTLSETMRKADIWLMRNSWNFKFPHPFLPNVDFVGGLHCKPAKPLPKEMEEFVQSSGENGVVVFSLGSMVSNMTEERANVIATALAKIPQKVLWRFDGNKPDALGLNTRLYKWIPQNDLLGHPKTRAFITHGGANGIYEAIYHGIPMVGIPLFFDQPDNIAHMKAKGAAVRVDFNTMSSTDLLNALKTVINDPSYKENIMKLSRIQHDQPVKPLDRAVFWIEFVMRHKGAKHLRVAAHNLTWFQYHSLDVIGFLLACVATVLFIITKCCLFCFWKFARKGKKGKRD

[2] = target: T2, UDP-glucuronosyltransferase 1-6 (Homo sapiens, UniProt P19224)
T2 sequence (P19224 whole entry): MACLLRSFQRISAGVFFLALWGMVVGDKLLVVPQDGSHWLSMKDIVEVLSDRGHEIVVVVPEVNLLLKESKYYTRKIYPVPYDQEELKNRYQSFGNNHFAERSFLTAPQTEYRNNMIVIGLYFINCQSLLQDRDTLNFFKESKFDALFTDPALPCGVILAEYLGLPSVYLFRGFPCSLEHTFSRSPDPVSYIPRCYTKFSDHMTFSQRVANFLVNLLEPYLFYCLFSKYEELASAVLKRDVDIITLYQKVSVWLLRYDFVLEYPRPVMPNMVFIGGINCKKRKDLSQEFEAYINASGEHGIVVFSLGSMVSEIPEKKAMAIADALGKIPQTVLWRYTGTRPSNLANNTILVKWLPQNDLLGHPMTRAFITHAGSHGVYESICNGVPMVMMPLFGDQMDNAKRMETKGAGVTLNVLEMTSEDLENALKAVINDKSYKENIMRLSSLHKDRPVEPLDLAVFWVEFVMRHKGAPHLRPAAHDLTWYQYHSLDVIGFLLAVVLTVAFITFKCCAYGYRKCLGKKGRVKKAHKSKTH

[3] = target: T3, UDP-glucuronosyltransferase 2B7 (Homo sapiens, UniProt P16662)
T3 sequence (P16662 whole entry): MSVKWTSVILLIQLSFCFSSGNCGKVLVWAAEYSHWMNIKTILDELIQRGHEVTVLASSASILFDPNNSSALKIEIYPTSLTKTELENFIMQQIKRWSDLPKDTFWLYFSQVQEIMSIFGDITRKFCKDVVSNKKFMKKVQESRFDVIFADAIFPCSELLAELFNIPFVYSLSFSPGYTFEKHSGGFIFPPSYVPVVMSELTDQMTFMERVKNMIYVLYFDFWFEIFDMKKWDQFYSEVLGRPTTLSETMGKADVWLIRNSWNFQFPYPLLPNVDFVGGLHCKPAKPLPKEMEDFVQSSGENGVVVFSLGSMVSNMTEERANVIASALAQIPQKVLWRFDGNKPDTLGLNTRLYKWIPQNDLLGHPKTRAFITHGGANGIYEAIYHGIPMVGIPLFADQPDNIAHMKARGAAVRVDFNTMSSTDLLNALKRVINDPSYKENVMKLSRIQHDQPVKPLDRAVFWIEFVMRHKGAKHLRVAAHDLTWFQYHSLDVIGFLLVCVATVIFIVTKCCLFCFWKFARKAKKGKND

[4] = target: T4, UDP-glucuronosyltransferase 1A4 (Homo sapiens, UniProt P22310)
T4 sequence (P22310 whole entry): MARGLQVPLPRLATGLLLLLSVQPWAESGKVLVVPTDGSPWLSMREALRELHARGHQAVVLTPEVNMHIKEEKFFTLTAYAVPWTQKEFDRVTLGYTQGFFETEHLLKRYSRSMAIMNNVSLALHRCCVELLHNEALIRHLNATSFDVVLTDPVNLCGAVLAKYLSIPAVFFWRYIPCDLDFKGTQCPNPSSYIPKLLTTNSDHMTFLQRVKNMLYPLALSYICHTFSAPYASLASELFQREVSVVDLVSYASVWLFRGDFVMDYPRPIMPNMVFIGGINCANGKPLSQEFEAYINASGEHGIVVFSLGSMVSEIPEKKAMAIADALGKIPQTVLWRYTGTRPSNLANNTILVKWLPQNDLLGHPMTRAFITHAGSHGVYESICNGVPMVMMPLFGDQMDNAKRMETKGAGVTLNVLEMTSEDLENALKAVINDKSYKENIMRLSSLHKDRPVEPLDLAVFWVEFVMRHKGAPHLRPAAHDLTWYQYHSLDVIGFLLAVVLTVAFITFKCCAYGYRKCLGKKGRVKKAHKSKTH

[5] = target: T5, UDP-glucuronosyltransferase 1A1 (Homo sapiens, UniProt P22309)
T5 sequence (P22309 whole entry): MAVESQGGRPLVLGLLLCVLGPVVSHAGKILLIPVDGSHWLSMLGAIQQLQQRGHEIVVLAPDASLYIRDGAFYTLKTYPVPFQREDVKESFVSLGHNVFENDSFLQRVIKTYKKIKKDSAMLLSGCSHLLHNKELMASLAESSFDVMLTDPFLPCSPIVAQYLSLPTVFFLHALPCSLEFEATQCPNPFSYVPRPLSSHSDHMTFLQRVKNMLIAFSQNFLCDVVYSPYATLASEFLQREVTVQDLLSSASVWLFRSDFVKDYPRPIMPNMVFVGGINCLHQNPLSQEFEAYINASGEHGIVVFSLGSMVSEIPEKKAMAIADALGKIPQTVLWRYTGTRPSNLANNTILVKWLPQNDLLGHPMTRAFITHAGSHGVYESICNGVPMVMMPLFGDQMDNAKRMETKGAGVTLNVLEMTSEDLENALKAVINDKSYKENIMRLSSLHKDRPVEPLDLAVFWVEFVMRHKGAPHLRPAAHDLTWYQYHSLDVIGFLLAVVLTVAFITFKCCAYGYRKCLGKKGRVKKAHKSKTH

Structure (SMILES) | IC50 [1] [µM] | IC50 [2] [µM] | IC50 [3] [µM] | IC50 [4] [µM] | IC50 [5] [µM]
CC(=O)O[C@H]1C(=O)[C@@]2(C)[C@H]([C@H](OC(=O)c3ccccc3)[C@]3(O)C[C@H](OC(=O)[C@H](O)[C@@H](NC(=O)c4ccccc4)c4ccccc4)C(C)=C1C3(C)C)[C@]1(OC(C)=O)CO[C@@H]1C[C@@H]2O | > 300 | 74 | > 300 | 4.9 | 20
O=c1cc(-c2ccccc2)oc2c1ccc1ccccc12 | > 300 | 67 | 149 | 23 | 38
Nc1ccc(S(=O)(=O)Nc2ccnn2-c2ccccc2)cc1 | > 300 | > 300 | > 300 | > 300 | > 300
CCCCNC(=O)NS(=O)(=O)c1ccc(C)cc1 [1-Butyl-3-(p-methylphenylsulfonyl)urea] | > 300 | 281 | > 300 | > 300 | > 300
O=c1ccc2ccccc2o1 [2H-chromen-2-one] | > 300 | > 300 | > 300 | > 300 | > 300
Cc1ncc2n1-c1ccc(Cl)cc1C(c1ccccc1F)=NC2 [12-chloro-9-(2-fluorophenyl)-3-methyl-2,4,8-triazatricyclo[8.4.0.0^{2,6}]tetradeca-1(10),3,5,8,11,13-hexaene] | 106 | 23 | 147 | – | 26
CC[C@@]1(c2ccccc2)NC(=O)N(C)C1=O [(5S)-5-Ethyl-3-methyl-5-phenyl-2,4-imidazolidinedione] | > 300 | > 300 | > 300 | > 300 | > 300
C=C[C@H]1C[N@@]2CC[C@H]1C[C@@H]2[C@@H](O)c1ccnc2ccc(OC)cc12 [(6-Methoxy-quinolin-4-yl)-(5-vinyl-1-aza-bicyclo[2.2.2]oct-2-yl)-methanol] | > 300 | > 300 | > 300 | 166 | > 300
CCOc1ccc(NC(C)=O)cc1 [ACETPHENETIDIN] | > 300 | > 300 | > 300 | > 300 | > 300
CC(NC(C)(C)C)C(=O)c1cccc(Cl)c1 (stereo not given) [BUPROPION HYDROCHLORIDE] | 88 | > 300 | > 300 | 152 | > 300
Cc1ncsc1CCCl [Chlormethiazole] | > 300 | > 300 | > 300 | > 300 | > 300
COc1ccc2c(c1)[C@@]13CCCC[C@@H]1[C@@H](C2)N(C)CC3 [Dextromethorphan] | 62 | > 300 | > 300 | 89 | > 300
COc1ccc2[nH]c([S+]([O-])Cc3ncc(C)c(OC)c3C)nc2c1 (stereo not given) [H-168/68] | > 300 | 185 | > 300 | > 300 | 56
CC(=O)N1CCN(c2ccc(OC[C@@H]3CO[C@@](Cn4ccnc4)(c4ccc(Cl)cc4Cl)O3)cc2)CC1 [Nizoral] | 22 | 19 | 60 | 58 | 4.1
CO[C@H]1C[C@H](O[C@H]2[C@H](C)[C@@H](O[C@@H]3O[C@H](C)C[C@H](N(C)C)[C@H]3O)[C@@H](C)C[C@@]3(CO3)C(=O)[C@H](C)[C@@H](O)[C@@H](C)[C@@H](C)OC(=O)[C@@H]2C)O[C@@H](C)[C@@H]1O [Oleandomycin] | > 300 | > 300 | 272 | 59 | 44
C[C@]12CC[C@H]3[C@@H](CCC4=CC(=O)CC[C@@]43C)[C@@H]1CC[C@@H]2O [Testosterone, 1] | > 300 | > 300 | 165 | – | 43
Cc1nc2c([nH]1)c(=O)n(C)c(=O)n2Cc1ccco1 [furafylline] | > 300 | > 300 | > 300 | > 300 | > 300
O=C(O)Cc1ccccc1Nc1c(Cl)cccc1Cl [{2-[(2,6-dichlorophenyl)amino]phenyl}acetic acid] | – | – | – | 192 | 155
